Measurements taken from patent US7858796B2, “Chemical compounds” (Glaxo Group Limited, priority 2004, dated 2010).

The compounds below were run on human monocyte stimulated cytokine production (TNF-α) (assay: Monocyte Assay (LPS-stimulated TNF-α production)). Details: human CD14+ monocytes, 200 ng/mL LPS, 24 hrs, TNF-α by ELISA.
Assay type: cell-based
Procedure: Effect of IKK-β inhibition on human monocyte stimulated cytokine production was assessed as follows: Monocytes were isolated from heparinized whole blood by Ficoll gradient, followed by purification of CD14+ cells using MACS magnetic cell separation beads. Isolated monocytes were then adhered to 96-well culture plates at 1×10^6 cells/mL in RPMI 1640 10% FBS (JRH Biosciences, Lenexa Kans.) for 2 h. to further enrich the monocyte population. The media was then removed, cells washed once with RPMI 1640, and 0.125 mL RPMI 1640 10% FBS was added to the wells. Test compounds are added to the wells 30 minutes prior to stimulation with a final vehicle concentration of 0.1% DMSO. Monocytes were activated by the addition of 200 ng/mL endotoxin (LPS; E. coli serotype 026:B6) (Sigma, St. Louis, Mo.) and incubated for 24 hrs at 37 C. Cell-free supernates were analyzed by ELISA for TNF-α using Pharmingen matched pair Abs. Viability of the cells was determined by10% trypan blue exclusion.

Structure (SMILES)	IC50
NC(=O)c1cc(-c2ccccc2)cc2c(C3CCN(S(=O)(=O)CCOCC4CCOC4)CC3)c[nH]c12 (centres unmarked) [Example 200]	< 10 µM
CC(=O)Nc1nc(C)c(S(=O)(=O)N2CCC(c3c[nH]c4c(C(N)=O)cc(-c5ccccc5)cc34)CC2)s1 [Example 272, 3-(1-{[2-(acetylamino)-4-methyl-1,3-thiazol-5-yl]sulfonyl}-4-piperidinyl)-5-phenyl-1H-indole-7-carboxamide]	< 10 µM
Cc1nn(C)c(Cl)c1S(=O)(=O)N1CCC(c2c[nH]c3c(C(N)=O)cc(-c4ccccc4)cc23)CC1 [Example 273, 3-{1-[(5-chloro-1,3-dimethyl-1H-pyrazol-4-yl)sulfonyl]-4-piperidinyl}-5-phenyl-1H-indole-7-carboxamide]	< 10 µM
NC(=O)c1cc(-c2ccccc2)cc2c(C3CCN(S(=O)(=O)c4ccc5nonc5c4Cl)CC3)c[nH]c12 [Example 274, 3-{1-[(4-chloro-2,1,3-benzoxadiazol-5-yl)sulfonyl]-4-piperidinyl}-5-phenyl-1H-indole-7-carboxamide]	< 10 µM
Cc1nc(S(=O)(=O)N2CCC(c3c[nH]c4c(C(N)=O)cc(-c5ccccc5)cc34)CC2)cn1C [Example 275, 3-{1-[(1,2-dimethyl-1H-imidazol-4-yl)sulfonyl]-4-piperidinyl}-5-phenyl-1H-indole-7-carboxamide]	< 10 µM
Cc1nn(C)c(C)c1S(=O)(=O)N1CCC(c2c[nH]c3c(C(N)=O)cc(-c4ccccc4)cc23)CC1 [Example 276, 5-phenyl-3-{1-[(1,3,5-trimethyl-1H-pyrazol-4-yl)sulfonyl]-4-piperidinyl}-1H-indole-7-carboxamide]	< 10 µM

Continued, values first:

IC50	Structure (SMILES)
< 10 µM	Cc1noc(C)c1S(=O)(=O)N1CCC(c2c[nH]c3c(C(N)=O)cc(-c4ccccc4)cc23)CC1 [Example 277, 3-{1-[(3,5-dimethyl-4-isoxazolyl)sulfonyl]-4-piperidinyl}-5-phenyl-1H-indole-7-carboxamide]
< 10 µM	Cc1nc(C)c(S(=O)(=O)N2CCC(c3c[nH]c4c(C(N)=O)cc(-c5ccccc5)cc34)CC2)s1 [Example 278, 3-{1-[(2,4-dimethyl-1,3-thiazol-5-yl)sulfonyl]-4-piperidinyl}-5-phenyl-1H-indole-7-carboxamide]
< 10 µM	Cc1ncc(S(=O)(=O)N2CCC(c3c[nH]c4c(C(N)=O)cc(-c5ccccc5)cc34)CC2)n1C [Example 279, 3-{1-[(1,2-dimethyl-1H-imidazol-5-yl)sulfonyl]-4-piperidinyl}-5-phenyl-1H-indole-7-carboxamide]
< 10 µM	Cn1cnc(S(=O)(=O)N2CCC(c3c[nH]c4c(C(N)=O)cc(-c5ccsc5)cc34)CC2)c1 [Example 280, 3-{1-[(1-methyl-1H-imidazol-4-yl)sulfonyl]-4-piperidinyl}-5-(3-thienyl)-1H-indole-7-carboxamide]
< 10 µM	NC(=O)c1cc(-c2ccccc2)cc2c(C3CCN(S(=O)(=O)c4ccsc4)CC3)c[nH]c12 [Example 311, 5-phenyl-3-[1-(3-thienylsulfonyl)piperidin-4-yl]-1H-indole-7-carboxamide]

What follows are compounds tested against T1, Recombinant human IKKβ (residues 1-737) (Homo sapiens, UniProt O14920) (assay: IKK2 Assay (TR-FRET)). Details: IKK2 5 nM, GST-IκBα 25 nM, ATP 1 μM, 30 minutes at room temperature, read-out: pIC50 against IKK2 (converted).
T1 construct: Recombinant human IKKβ (residues 1-737); GST (C); made in house
T1 sequence (O14920 1-737): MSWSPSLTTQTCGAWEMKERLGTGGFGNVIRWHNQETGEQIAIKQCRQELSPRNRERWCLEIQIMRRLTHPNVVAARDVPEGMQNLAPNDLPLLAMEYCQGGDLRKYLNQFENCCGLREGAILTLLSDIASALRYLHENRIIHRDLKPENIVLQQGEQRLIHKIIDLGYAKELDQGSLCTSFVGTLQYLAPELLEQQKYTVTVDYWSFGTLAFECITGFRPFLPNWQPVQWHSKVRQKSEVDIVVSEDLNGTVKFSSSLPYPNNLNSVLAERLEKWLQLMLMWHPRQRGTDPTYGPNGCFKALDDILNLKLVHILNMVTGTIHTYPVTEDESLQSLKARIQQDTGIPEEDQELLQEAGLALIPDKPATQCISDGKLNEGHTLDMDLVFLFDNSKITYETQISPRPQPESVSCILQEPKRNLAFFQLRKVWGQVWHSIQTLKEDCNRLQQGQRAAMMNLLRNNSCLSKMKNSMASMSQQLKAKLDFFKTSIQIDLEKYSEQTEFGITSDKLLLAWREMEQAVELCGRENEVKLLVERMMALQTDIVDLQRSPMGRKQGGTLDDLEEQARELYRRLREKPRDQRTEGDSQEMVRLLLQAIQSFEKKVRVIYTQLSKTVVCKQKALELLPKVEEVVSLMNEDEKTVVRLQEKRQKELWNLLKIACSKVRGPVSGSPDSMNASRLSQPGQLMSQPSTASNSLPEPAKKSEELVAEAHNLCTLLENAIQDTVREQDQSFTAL
Assay type: biochemical
Procedure: Recombinant human IKKβ (residues 1-737) was expressed in baculovirus as a C-terminal GST-tagged fusion protein, and its activity was assessed using a time-resolved fluorescence resonance energy transfer (TR-FRET) assay. Briefly, IKK2 (5 nM final) diluted in assay buffer (50 mM HEPES, 10 mM MgCl2, 1 mM CHAPS pH 7.4 with 1 mM DTT and 0.01% w/v BSA) was added to wells containing various concentrations of compound or DMSO vehicle (3% final). The reaction was initiated by the addition of GST-IκBα substrate (25 nM final)/ATP (1 μM final), in a total volume of 30 μl. The reaction was incubated for 30 minutes at room temperature, then terminated by the addition of 15 μl of 50 mM EDTA. Detection reagent (15 μl) in buffer (100 mM HEPES pH 7.4, 150 mM NaCl and 0.1% w/v BSA) containing antiphosphoserine-IκBα-32/36 monoclonal antibody 12C2 (Cell Signalling Technology, Beverly Mass., USA) labelled with W-1024 europium chelate (Wallac OY, Turku, Finland), and an APC-labelled anti-GST antibody (Prozyme, San Leandro, Calif., USA) was added and the reaction was further incubated for 60 minutes at room temperature. The degree of phosphorylation of GST-IκBα was measured using a Packard Discovery plate reader (Perkin-Elmer Life Sciences, Pangbourne, UK) as a ratio of specific 665 nm energy transfer signal to reference europium 620 nm signal.

IC50	Structure (SMILES)
≤ 10 µM	NC(=O)c1cc(-c2ccccc2)cc2c(C3CCN(S(=O)(=O)CCNCC4CCCCC4)CC3)c[nH]c12 [Example 38]
≤ 10 µM	NC(=O)c1cc(-c2ccccc2)cc2c(C3CCN(S(=O)(=O)CCOCC4CCOC4)CC3)c[nH]c12 (centres unmarked) [Example 200]
> 25.1 µM	COCCCS(=O)(=O)N1CCC(c2c[nH]c3c(C(N)=O)cc(-c4cccc(CNCCN5CCCCC5)c4)cc23)CC1 [Example 249]
